Counter-ions that a name gives are not always drawn.
How the values were obtained:
[1] = target: Rat recombinant PDE10a (rPDE10a) (Rattus norvegicus (Rat), UniProt Q9QYJ6); experiment: In vitro assay PDE10a (rat recombinant PDE10a, SPA); format: biochemical; conditions: 60 nM cAMP, 60 min at rt, read-out: rPDE10a2 IC50
How it was run: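 Rat PDE10a expressed in Sf9 cells (baculovirus) and Ni-sepharose purified. Incubated with compound for 60 min at rt in 50 mM Tris pH 7.8, 8.3 mM MgCl2, 1.7 mM EGTA with 60 nM cAMP plus 0.008 μCi ^3H-cAMP (final), 1% DMSO. Read-out by PDE SPA bead scintillation counting (cpm), no-enzyme blank.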

[2] = target: Human recombinant PDE10A2 (Homo sapiens (Human), UniProt Q9Y233); experiment: In vitro hPDE10a (human recombinant PDE10A2, scintillation proximity assay); format: biochemical; conditions: human recombinant PDE10A2, 60 nM cAMP, 60 min at room temperature; read-out: hPDE10a2 IC50
Chain of Human recombinant PDE10A2 (Q9Y233 267-1055): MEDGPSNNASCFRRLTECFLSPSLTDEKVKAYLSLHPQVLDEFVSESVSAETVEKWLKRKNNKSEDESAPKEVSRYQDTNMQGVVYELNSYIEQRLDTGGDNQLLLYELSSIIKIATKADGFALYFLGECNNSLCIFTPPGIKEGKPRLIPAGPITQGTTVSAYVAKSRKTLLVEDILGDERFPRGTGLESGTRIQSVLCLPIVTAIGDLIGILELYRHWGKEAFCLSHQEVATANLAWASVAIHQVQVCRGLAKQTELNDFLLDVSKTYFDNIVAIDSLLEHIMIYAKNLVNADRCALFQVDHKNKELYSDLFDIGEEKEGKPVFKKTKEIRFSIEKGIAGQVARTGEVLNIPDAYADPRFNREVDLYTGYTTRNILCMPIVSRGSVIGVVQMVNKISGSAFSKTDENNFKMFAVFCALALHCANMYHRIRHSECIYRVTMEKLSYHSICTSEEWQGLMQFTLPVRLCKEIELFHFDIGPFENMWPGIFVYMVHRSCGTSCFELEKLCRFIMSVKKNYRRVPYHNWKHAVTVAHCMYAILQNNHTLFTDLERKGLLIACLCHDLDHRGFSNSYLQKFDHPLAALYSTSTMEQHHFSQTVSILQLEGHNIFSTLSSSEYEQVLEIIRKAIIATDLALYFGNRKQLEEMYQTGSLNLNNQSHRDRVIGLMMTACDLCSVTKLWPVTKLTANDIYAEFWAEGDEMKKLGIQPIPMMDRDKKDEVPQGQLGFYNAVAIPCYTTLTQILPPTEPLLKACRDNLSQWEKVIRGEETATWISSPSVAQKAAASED

[3] = PDE10a-perfused brain permeability study (plasma and brain concentrations); conditions: male, Sprague-Dawley, rat; for Kp at 2 h: brain/plasma
Experimental: Drug administration by oral gavage, subcutaneous injection or intravenous was carried out using male Sprague Dawley rats under IACUC protocol (SH-MET3010). Male Sprague Dawley rats (Charles River) ˜300-350 g were maintained on a 4% standard rodent diet (Test Diet 5001). They are allowed ad libitum access to water and food. Room temperature was maintained at 64° F. and humidity at 30-70%.
Three animals per compound were provided a dose of 2 mg/mL in 20% HpbCD/Tris pH 8 by tail i.v. or 30 mpk p.o. or s.c. in 20% HpbCD/Tris pH 8, with PDE10a antagonists. A first blood sample was collected at 30 min via retro-orbital sinus (anesthetic by 70% CO2/30% O2) into heparinzed plasma separator tubes. The blood was centrifuged and 100 uL plasma was placed into a 96 well plate and saved on dry ice.
After the 120 min, the final blood sample was collected via retro-orbital sinus under anesthesia by IP 0.5 cc injection of a 4/1 mixture of Ketaset: AnaSed [(prepared 10 mL Ketaset (100 mg/mL Ketamine)+2.5 mL AnaSed (20 mg/mL Xylazine)]. The rats were then perfused with 400 mL heparinized saline (10,000 units/L) through the left ventricle of the heart; the brains were then removed (not including the medulla), weighed and homogenized in PBS (4 mL/g tissue). The samples were stored at −80° C. and submitted for chemical analysis of blood and brain concentrations. Endpoints of sample analysis consists of the plasma concentrations at 30 and 120 min, plus brain concentrations at 120 min.

Chain of Rat recombinant PDE10a (rPDE10a) (Q9QYJ6 whole entry): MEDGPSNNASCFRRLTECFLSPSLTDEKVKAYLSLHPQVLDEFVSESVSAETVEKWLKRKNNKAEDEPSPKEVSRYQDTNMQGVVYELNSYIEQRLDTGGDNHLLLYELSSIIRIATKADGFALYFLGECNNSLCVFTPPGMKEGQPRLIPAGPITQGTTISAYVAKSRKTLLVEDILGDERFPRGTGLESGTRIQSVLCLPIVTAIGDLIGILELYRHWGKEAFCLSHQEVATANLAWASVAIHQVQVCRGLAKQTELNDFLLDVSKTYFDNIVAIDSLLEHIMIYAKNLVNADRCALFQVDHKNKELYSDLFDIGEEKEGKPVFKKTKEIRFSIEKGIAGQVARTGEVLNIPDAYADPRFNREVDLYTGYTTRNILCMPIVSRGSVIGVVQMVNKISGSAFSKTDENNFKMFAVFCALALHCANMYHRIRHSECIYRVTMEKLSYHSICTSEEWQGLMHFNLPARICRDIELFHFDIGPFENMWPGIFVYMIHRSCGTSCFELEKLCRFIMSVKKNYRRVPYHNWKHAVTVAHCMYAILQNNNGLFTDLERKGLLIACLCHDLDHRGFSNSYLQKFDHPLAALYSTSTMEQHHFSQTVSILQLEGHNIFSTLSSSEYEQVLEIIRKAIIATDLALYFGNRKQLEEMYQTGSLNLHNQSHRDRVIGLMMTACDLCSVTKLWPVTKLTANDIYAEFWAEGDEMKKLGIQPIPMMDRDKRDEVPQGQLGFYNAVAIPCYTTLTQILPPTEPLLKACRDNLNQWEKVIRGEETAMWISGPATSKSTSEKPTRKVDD

| IC50 [1] [nM] | IC50 [2] [nM] | concentration at 2 h ([3]; brain) [ng/g] | Kp at 2 h [3] | concentration at 2 h ([3]; plasma) [ng/mL] | SMILES |
| --- | --- | --- | --- | --- | --- |
| 27 | 31 | 21.9 | 2.07 | 11 | c1cncc(-c2cnc(N3CCOCC3)c3nc(COc4ccc5ccccc5n4)cn23)c1 [Cpd 129, 4-(5-(Pyridin-3-yl)-2-((quinolin-2-yloxy)methyl)imidazo[1,2-a]pyrazin-8-yl)morpholine methane sulfonic acid salt] |
| 11 | 51 | 57.3 | 2.04 | 28.1 | c1ccc2nc(OCc3cn4c(-c5ccc(N6CCOCC6)nc5)cnc(N5CCOCC5)c4n3)ccc2c1 [Cpd 131, 4-(5-(8-Morpholino-2-((quinolin-2-yloxy)methyl)imidazo[1,2-a]pyrazin-5-yl)pyridin-2-yl)morpholine] |

— patent publication US9249163B2, “PDE10a inhibitors for the treatment of type II diabetes” (Janssen Pharmaceutica, NV, priority 2013, dated 2016)
